Test results taken from PubChem BioAssay (NCI).
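Exposure lasted 48 hours, with cells grown in 96-well plates and compounds tested at five concentrations. Definition used: TGI = concentration required for complete inhibition of growth.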

Columns and labels:
Assay in all cases: growth of human tumour cells (NCI), 48 h
786-0 renal = tested on: 786-0 renal
A498 renal = tested on: A498 renal
A549 NSCLC = tested on: A549 NSCLC
ACHN renal = tested on: ACHN renal
BT-549 breast = tested on: BT-549 breast
CAKI-1 renal = tested on: CAKI-1 renal
CCRF-CEM leukemia = tested on: CCRF-CEM leukemia
COLO 205 colon = tested on: COLO 205 colon
DU-145 prostate = tested on: DU-145 prostate
EKVX NSCLC = tested on: EKVX NSCLC
HCC-2998 colon = tested on: HCC-2998 colon
HCT-116 colon = tested on: HCT-116 colon
HCT-15 colon = tested on: HCT-15 colon
HL-60(TB) leukemia = tested on: HL-60(TB) leukemia
HOP-62 NSCLC = tested on: HOP-62 NSCLC
HS 578T breast = tested on: HS 578T breast
HT29 colon = tested on: HT29 colon
IGROV1 ovarian = tested on: IGROV1 ovarian
K-562 leukemia = tested on: K-562 leukemia
KM12 colon = tested on: KM12 colon
LOX IMVI melanoma = tested on: LOX IMVI melanoma
M14 melanoma = tested on: M14 melanoma
MALME-3M melanoma = tested on: MALME-3M melanoma
MCF7 breast = tested on: MCF7 breast
MDA-MB-231 breast = tested on: MDA-MB-231 breast
MDA-MB-435 = tested on: MDA-MB-435
MDA-N = tested on: MDA-N
MOLT-4 leukemia = tested on: MOLT-4 leukemia
NCI-H226 lung = tested on: NCI-H226 lung
NCI-H23 lung = tested on: NCI-H23 lung
NCI-H460 lung = tested on: NCI-H460 lung
NCI-H522 lung = tested on: NCI-H522 lung
NCI/ADR-RES ovarian = tested on: NCI/ADR-RES ovarian
OVCAR-3 ovarian = tested on: OVCAR-3 ovarian
OVCAR-4 ovarian = tested on: OVCAR-4 ovarian
OVCAR-5 ovarian = tested on: OVCAR-5 ovarian
OVCAR-8 ovarian = tested on: OVCAR-8 ovarian
PC-3 prostate = tested on: PC-3 prostate
RPMI-8226 leukemia = tested on: RPMI-8226 leukemia
RXF 393 renal = tested on: RXF 393 renal
SF-268 CNS = tested on: SF-268 CNS
SF-295 CNS = tested on: SF-295 CNS
SF-539 CNS = tested on: SF-539 CNS
SK-MEL-2 melanoma = tested on: SK-MEL-2 melanoma
SK-MEL-28 melanoma = tested on: SK-MEL-28 melanoma
SK-MEL-5 melanoma = tested on: SK-MEL-5 melanoma
SK-OV-3 ovarian = tested on: SK-OV-3 ovarian
SN12C renal = tested on: SN12C renal
SNB-19 CNS = tested on: SNB-19 CNS
SNB-75 CNS = tested on: SNB-75 CNS
SR leukemia = tested on: SR leukemia
SW-620 colon = tested on: SW-620 colon
T-47D breast = tested on: T-47D breast
TK-10 renal = tested on: TK-10 renal
U251 CNS = tested on: U251 CNS
UACC-257 melanoma = tested on: UACC-257 melanoma
UACC-62 melanoma = tested on: UACC-62 melanoma
UO-31 renal = tested on: UO-31 renal
HOP-92 NSCLC = tested on: HOP-92 NSCLC

O=[N+]([O-])c1ccccc1N=Nc1c(O)[nH]c2ccc(Br)cc12
TGI (786-0 renal): 40.4 µM
TGI (A498 renal): > 45.8 µM
TGI (A549 NSCLC): 21 µM
TGI (ACHN renal): 22.9 µM
TGI (BT-549 breast): > 47.3 µM
TGI (CAKI-1 renal): 33.1 µM
TGI (CCRF-CEM leukemia): 31.9 µM
TGI (COLO 205 colon): 33.9 µM
TGI (DU-145 prostate): 31.5 µM
TGI (EKVX NSCLC): > 59 µM
TGI (HCC-2998 colon): 34.1 µM
TGI (HCT-116 colon): > 67 µM
TGI (HCT-15 colon): > 56 µM
TGI (HL-60(TB) leukemia): > 68.8 µM
TGI (HOP-62 NSCLC): 28.3 µM
TGI (HS 578T breast): 46.2 µM
TGI (HT29 colon): 29.3 µM
TGI (IGROV1 ovarian): 20.1 µM
TGI (K-562 leukemia): > 68.3 µM
TGI (KM12 colon): 36.5 µM
TGI (LOX IMVI melanoma): > 61 µM
TGI (M14 melanoma): 44.7 µM
TGI (MALME-3M melanoma): > 100 µM
TGI (MCF7 breast): 59.9 µM
TGI (MDA-MB-231 breast): 25.2 µM
TGI (MDA-MB-435): > 94.4 µM
TGI (MDA-N): > 60.5 µM
TGI (MOLT-4 leukemia): > 78.5 µM
TGI (NCI-H226 lung): > 48.9 µM
TGI (NCI-H23 lung): 21.3 µM
TGI (NCI-H460 lung): 25 µM
TGI (NCI-H522 lung): > 34.8 µM
TGI (NCI/ADR-RES ovarian): 40.6 µM
TGI (OVCAR-3 ovarian): 35.4 µM
TGI (OVCAR-4 ovarian): > 59 µM
TGI (OVCAR-5 ovarian): 33.3 µM
TGI (OVCAR-8 ovarian): 44 µM
TGI (PC-3 prostate): 33.3 µM
TGI (RPMI-8226 leukemia): > 68.6 µM
TGI (RXF 393 renal): > 47.5 µM
TGI (SF-268 CNS): 51.9 µM
TGI (SF-295 CNS): 34.3 µM
TGI (SF-539 CNS): > 100 µM
TGI (SK-MEL-2 melanoma): 54.1 µM
TGI (SK-MEL-28 melanoma): > 61.9 µM
TGI (SK-MEL-5 melanoma): > 37.7 µM
TGI (SK-OV-3 ovarian): > 77.3 µM
TGI (SN12C renal): 44.8 µM
TGI (SNB-19 CNS): 45.2 µM
TGI (SNB-75 CNS): 36.1 µM
TGI (SR leukemia): > 40.5 µM
TGI (SW-620 colon): > 62.4 µM
TGI (T-47D breast): > 78.7 µM
TGI (TK-10 renal): 30.8 µM
TGI (U251 CNS): > 53.3 µM
TGI (UACC-257 melanoma): > 50.3 µM
TGI (UACC-62 melanoma): 66.8 µM
TGI (UO-31 renal): 44.7 µM

CC(C)(C)OC(=O)NCC(=O)NC1c2ccsc2/C(=N/O)[C@H]1O (stereo not given in full)
TGI (A498 renal): > 100 µM
TGI (A549 NSCLC): > 100 µM
TGI (BT-549 breast): > 100 µM
TGI (CAKI-1 renal): > 100 µM
TGI (CCRF-CEM leukemia): > 100 µM
TGI (COLO 205 colon): > 100 µM
TGI (DU-145 prostate): > 100 µM
TGI (EKVX NSCLC): > 100 µM
TGI (HCC-2998 colon): > 100 µM
TGI (HCT-116 colon): > 100 µM
TGI (HCT-15 colon): > 100 µM
TGI (HL-60(TB) leukemia): > 100 µM
TGI (HOP-62 NSCLC): > 100 µM
TGI (HOP-92 NSCLC): > 100 µM
TGI (HT29 colon): > 100 µM
TGI (IGROV1 ovarian): > 100 µM
TGI (K-562 leukemia): > 100 µM
TGI (LOX IMVI melanoma): > 100 µM
TGI (M14 melanoma): > 100 µM
TGI (MALME-3M melanoma): > 100 µM
TGI (MCF7 breast): > 100 µM
TGI (MDA-MB-231 breast): > 100 µM
TGI (MDA-MB-435): > 100 µM
TGI (MDA-N): > 100 µM
TGI (MOLT-4 leukemia): > 100 µM
TGI (NCI-H226 lung): > 100 µM
TGI (NCI-H23 lung): > 100 µM
TGI (NCI-H460 lung): > 100 µM
TGI (NCI/ADR-RES ovarian): > 100 µM
TGI (OVCAR-3 ovarian): > 100 µM
TGI (OVCAR-4 ovarian): > 100 µM
TGI (OVCAR-5 ovarian): > 100 µM
TGI (OVCAR-8 ovarian): > 100 µM
TGI (PC-3 prostate): > 100 µM
TGI (RXF 393 renal): > 100 µM
TGI (SF-295 CNS): > 100 µM
TGI (SF-539 CNS): > 100 µM
TGI (SK-MEL-2 melanoma): > 100 µM
TGI (SK-MEL-28 melanoma): > 100 µM
TGI (SK-MEL-5 melanoma): > 100 µM
TGI (SK-OV-3 ovarian): > 100 µM
TGI (SN12C renal): > 100 µM
TGI (SNB-19 CNS): > 100 µM
TGI (SR leukemia): > 100 µM
TGI (SW-620 colon): > 100 µM
TGI (T-47D breast): > 100 µM
TGI (TK-10 renal): > 100 µM
TGI (U251 CNS): > 100 µM
TGI (UACC-257 melanoma): > 100 µM
TGI (UACC-62 melanoma): > 100 µM
TGI (UO-31 renal): > 100 µM

O=Cc1cc([N+](=O)[O-])no1
TGI (A498 renal): > 100 µM
TGI (BT-549 breast): > 100 µM
TGI (CAKI-1 renal): > 100 µM
TGI (CCRF-CEM leukemia): > 100 µM
TGI (COLO 205 colon): > 100 µM
TGI (DU-145 prostate): > 100 µM
TGI (HCC-2998 colon): > 100 µM
TGI (HCT-116 colon): 33.7 µM
TGI (HCT-15 colon): > 100 µM
TGI (HL-60(TB) leukemia): > 100 µM
TGI (HOP-62 NSCLC): > 100 µM
TGI (HOP-92 NSCLC): > 100 µM
TGI (HS 578T breast): > 100 µM
TGI (HT29 colon): 61.6 µM
TGI (IGROV1 ovarian): > 100 µM
TGI (K-562 leukemia): 38.6 µM
TGI (KM12 colon): 54.2 µM
TGI (LOX IMVI melanoma): > 100 µM
TGI (M14 melanoma): 35.6 µM
TGI (MCF7 breast): 86.9 µM
TGI (MDA-MB-231 breast): 64.3 µM
TGI (MDA-MB-435): 29.9 µM
TGI (MDA-N): 52.6 µM
TGI (MOLT-4 leukemia): 81.5 µM
TGI (NCI-H226 lung): > 100 µM
TGI (NCI-H23 lung): > 100 µM
TGI (NCI-H460 lung): > 100 µM
TGI (NCI/ADR-RES ovarian): > 100 µM
TGI (OVCAR-3 ovarian): > 100 µM
TGI (OVCAR-4 ovarian): 35.8 µM
TGI (OVCAR-5 ovarian): > 100 µM
TGI (OVCAR-8 ovarian): > 100 µM
TGI (PC-3 prostate): > 100 µM
TGI (RPMI-8226 leukemia): > 100 µM
TGI (RXF 393 renal): > 100 µM
TGI (SF-295 CNS): > 100 µM
TGI (SK-MEL-2 melanoma): 57.4 µM
TGI (SK-MEL-28 melanoma): > 100 µM
TGI (SK-MEL-5 melanoma): 36.6 µM
TGI (SK-OV-3 ovarian): > 100 µM
TGI (SN12C renal): > 100 µM
TGI (SNB-19 CNS): > 100 µM
TGI (SNB-75 CNS): > 100 µM
TGI (SR leukemia): > 100 µM
TGI (SW-620 colon): > 100 µM
TGI (T-47D breast): > 100 µM
TGI (TK-10 renal): > 100 µM
TGI (U251 CNS): > 100 µM
TGI (UACC-257 melanoma): 90.7 µM
TGI (UACC-62 melanoma): 46.3 µM
TGI (UO-31 renal): > 100 µM
